Assay results as given in US9868737B2, “Pyridino[1,2-A]pyrimidone analogue used as MTOR/P13K inhibitor” (CISEN PHARMACEUTICAL CO., LTD., priority 2014, dated 2018).
Read-outs that look alike come from different tables or passages of the source.

System: MCF-7 cells
Assay: In vitro test of cell activity (MCF-7 cells, insulin stimulation, ELISA-One fluorescence)
Assay type: cell-based
Conditions: Homo sapiens, MCF7, MCF-7 cells; for inhibition at 1 µM: conc. 1 μM; for inhibition at 0.5 µM: conc. 0.5 μM; for inhibition at 0.25 µM: conc. 0.25 μM
In short: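 Fluorescence ELISA-One read-out on cell lysates, antibody-captured 1 h at room temperature. Before lysis, MCF-7 cells (2.5×10^4/well) were pretreated 2 h with compound in serum-free medium, single dose for screening or a dilution series for IC50, then stimulated 30 min with insulin ([…] final).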

Row | SMILES | IC50 (read-out: IC50 p-AKT) | IC50 (read-out: IC50 p-p70S6K) | inhibition at 0.5 µM (read-out: % inhibition AKT) | inhibition at 0.5 µM (read-out: % inhibition p70s6k) | other results
1 | O=c1ccnc2ccc(-c3cnc(Cl)c(NS(=O)(=O)c4ccc(F)cc4F)c3)cn12 [compound 16] | ≤ 50 nM | > 250 nM |  |  | inhibition at 1 µM (read-out: % inhibition AKT): 91.6%; inhibition at 1 µM (read-out: % inhibition p70s6k): 75.1%
2 | COc1ncc(-c2ccc3ncc(F)c(=O)n3c2)cc1NS(=O)(=O)c1ccc(F)cc1C [compound 66] | ≤ 50 nM | ≤ 50 nM | 89% | 91.3% | 
3 | COc1ncc(-c2ccc3nccc(=O)n3c2)cc1NS(=O)(=O)CC(F)(F)F [compound 13] |  |  |  |  | inhibition at 1 µM (read-out: % inhibition AKT): 78.3%; inhibition at 1 µM (read-out: % inhibition p70s6k): 53%
4 | COc1ncc(-c2cn3c(=O)ccnc3cn2)cc1NS(=O)(=O)c1cccc(F)c1 [compound 42] |  |  | 9.1% | 5.1% | 
5 | COc1ncc(-c2ccc3ncc(F)c(=O)n3c2)cc1NS(=O)(=O)c1ccccc1F [compound 64] | ≤ 50 nM | ≤ 50 nM | 87.8% | 91.7% | 
6 | COc1ncc(-c2ccc3ncc(F)c(=O)n3c2)cc1NS(=O)(=O)c1ccccc1Cl [compound 63] | ≤ 50 nM | ≤ 50 nM | 89.5% | 92.9% | 
7 | COc1ncc(-c2ccc3nccc(=O)n3c2)cc1NS(=O)(=O)C1CC1 [compound 9] |  |  |  |  | inhibition at 1 µM (read-out: % inhibition AKT): 76%; inhibition at 1 µM (read-out: % inhibition p70s6k): 38.4%
8 | COc1ncc(-c2cn3c(=O)ccnc3cn2)cc1NS(=O)(=O)c1cc(F)cc(F)c1 [compound 40] |  |  | 18.1% | 13.7% | 
9 | COc1ncc(-c2ccc3ncc(F)c(=O)n3c2)cc1NS(=O)(=O)c1cc(F)ccc1F [compound 65] | ≤ 50 nM | 50 to 100 nM | 84.8% | 89.7% | 
10 | COc1ncc(-c2ccc3nccc(=O)n3c2)cc1NS(=O)(=O)c1cccc(F)c1 [compound 3] | 50 to 100 nM | 50 to 100 nM |  |  | inhibition at 1 µM (read-out: % inhibition AKT): 95.9%; inhibition at 1 µM (read-out: % inhibition p70s6k): 52.4%
11 | COc1ncc(-c2ccc3nccc(=O)n3c2)cc1NS(=O)(=O)c1ccc(C(F)(F)F)cc1 [compound 22] | ≤ 50 nM | 100 to 250 nM |  |  | inhibition at 1 µM (read-out: % inhibition AKT): 94.5%; inhibition at 1 µM (read-out: % inhibition p70s6k): 94%
12 | COc1ncc(-c2cn3c(=O)ccnc3cn2)cc1NS(=O)(=O)c1ccc(F)cc1 [compound 43] |  |  | 17.8% | 16.2% | 
13 | CCOc1cnc2ccc(-c3cnc(OC)c(NS(=O)(=O)c4ccccc4Cl)c3)cn2c1=O [compound 173] |  |  |  |  | inhibition at 0.25 µM (read-out: % inhibition AKT): 88.9%; inhibition at 0.25 µM (read-out: % inhibition p70s6k): 82.6%
14 | COc1ncc(-c2ccc3nccc(=O)n3c2)cc1NS(=O)(=O)c1ccc(C)s1 [compound 35] | ≤ 50 nM | ≤ 50 nM | 93.3% | 86% | 
15 | COc1ncc(-c2ccc3ncc(Cl)c(=O)n3c2)cc1NS(=O)(=O)c1ccc(F)cc1 [compound 146] |  |  |  |  | inhibition at 0.25 µM (read-out: % inhibition AKT): 77.6%; inhibition at 0.25 µM (read-out: % inhibition p70s6k): 83.7%
16 | COc1ncc(-c2cn3c(=O)ccnc3cc2C)cc1NS(=O)(=O)c1ccccc1F [compound 123] |  |  | -82.1% | 6.7% | 
17 | COc1ncc(-c2ccc3nc(C)cc(=O)n3c2)cc1NS(=O)(=O)c1ccc(C(F)(F)F)cc1 [compound 223] |  |  |  |  | inhibition at 0.25 µM (read-out: % inhibition AKT): 17.9%; inhibition at 0.25 µM (read-out: % inhibition p70s6k): -1.5%
18 | COc1ncc(-c2cn3c(=O)ccnc3cc2F)cc1NS(=O)(=O)c1ccccc1F [compound 113] |  |  | -7.6% | 4.6% | 
19 | COc1ncc(-c2ccc3nccc(=O)n3n2)cc1NS(=O)(=O)c1ccc(F)cc1Cl [compound 78] |  |  | 72.6% | 32.6% | 
20 | COc1ncc(-c2ccc3nccc(=O)n3c2)cc1NS(=O)(=O)c1ccc(C#N)cc1 [compound 21] | 50 to 100 nM | 100 to 250 nM |  |  | inhibition at 1 µM (read-out: % inhibition AKT): 94.1%; inhibition at 1 µM (read-out: % inhibition p70s6k): 91.2%
21 | COc1ncc(-c2cn3c(=O)ccnc3cc2F)cc1NS(=O)(=O)c1ccc(F)cc1F [compound 112] |  |  | 40.8% | 3.6% | 
22 | COc1ncc(-c2cn3c(=O)ccnc3cc2C)cc1NS(=O)(=O)c1ccc(F)cc1C [compound 126] |  |  | -12.7% | 2.4% | 
23 | COc1ncc(-c2ccc3ncc(Cl)c(=O)n3c2)cc1NS(=O)(=O)c1cnc(C)[nH]1 [compound 155] |  |  |  |  | inhibition at 0.25 µM (read-out: % inhibition AKT): 29.8%; inhibition at 0.25 µM (read-out: % inhibition p70s6k): 42.2%
24 | COc1ncc(-c2cn3c(=O)ccnc3cn2)cc1NS(=O)(=O)c1ccccc1F [compound 44] |  |  | 6.3% | 4.7% | 
25 | Cc1ncc(-c2ccc3nccc(=O)n3c2)cc1NS(=O)(=O)c1ccc(F)cc1F [compound 7] |  |  |  |  | inhibition at 1 µM (read-out: % inhibition AKT): 81.3%; inhibition at 1 µM (read-out: % inhibition p70s6k): 50.1%
26 | COc1ncc(-c2ccc3nccc(=O)n3n2)cc1NS(=O)(=O)c1c(F)cccc1F [compound 73] |  |  | 40.5% | -2.1% | 
27 | COc1ncc(-c2ccc3ncc(-n4ccc(C)n4)c(=O)n3c2)cc1NS(=O)(=O)c1ccccc1Cl [compound 220] |  |  |  |  | inhibition at 0.25 µM (read-out: % inhibition AKT): 51.2%; inhibition at 0.25 µM (read-out: % inhibition p70s6k): 11%

Further lines, with some results ahead:

Row | IC50 (read-out: IC50 p-AKT) | IC50 (read-out: IC50 p-p70S6K) | SMILES | inhibition at 0.5 µM (read-out: % inhibition AKT) | inhibition at 0.5 µM (read-out: % inhibition p70s6k) | other results
28 | ≤ 50 nM |  | COc1ncc(-c2ccc3ncc(Cl)c(=O)n3c2)cc1NS(=O)(=O)c1nc(N)sc1C [compound 170] |  |  | 
29 | ≤ 50 nM |  | COc1ncc(-c2ccc3ncc(Cl)c(=O)n3c2)cc1NS(=O)(=O)c1sc(Cl)nc1C [compound 168] |  |  | 
30 | ≤ 50 nM |  | CCOCCOc1cnc2ccc(-c3cnc(OC)c(NS(=O)(=O)c4sc(C)nc4C)c3)cn2c1=O [compound 199] |  |  | 
31 | ≤ 50 nM | 100 to 250 nM | COc1ncc(-c2ccc3ncc(C)c(=O)n3c2)cc1NS(=O)(=O)c1ccc(Cl)cc1F [compound 82] | 92.1% | 88.1% | 
32 | ≤ 50 nM | 50 to 100 nM | COc1ncc(-c2ccc3ncc(OC)c(=O)n3c2)cc1NS(=O)(=O)c1ccc(F)cc1C [compound 106] | 96.2% | 91.8% | 
33 | 100 to 250 nM |  | COc1ncc(-c2ccc3n[nH]c(=O)n3c2)cc1NS(=O)(=O)c1ccc(F)cc1F [compound 235] |  |  | 
34 | 100 to 250 nM |  | COCCOc1cnc2ccc(-c3cnc(OC)c(NS(=O)(=O)c4cc(Cl)c(F)cc4F)c3)cn2c1=O [compound 273] |  |  | 
35 | ≤ 50 nM | 50 to 100 nM | COc1ncc(-c2ccc3ncc(C)c(=O)n3c2)cc1NS(=O)(=O)c1ccccc1Cl [compound 85] | 95.8% | 88.3% | 
36 | > 250 nM |  | COc1ncc(-c2ccc3ncc(OCC(=O)O)c(=O)n3c2)cc1NS(=O)(=O)c1ccc(F)cc1F [compound 177] |  |  | 
37 | 50 to 100 nM |  | COCCOc1cnc2ccc(-c3ccc(OC)c(NS(=O)(=O)c4ccc(F)cc4F)c3)cn2c1=O [compound 205] |  |  | 
38 | ≤ 50 nM | 50 to 100 nM | COc1ncc(-c2ccc3ncc(F)c(=O)n3c2)cc1NS(=O)(=O)c1c(F)cccc1F [compound 68] | 88% | 90.3% | 
39 | 100 to 250 nM | 100 to 250 nM | COc1ncc(-c2ccc3ncc(Cl)c(=O)n3c2)cc1NS(=O)(=O)c1ncccc1Cl [compound 159] |  |  | inhibition at 0.25 µM (read-out: % inhibition AKT): 68.6%; inhibition at 0.25 µM (read-out: % inhibition p70s6k): 84.8%
40 | 50 to 100 nM | > 250 nM | COc1ncc(-c2ccc3ncc(Cl)c(=O)n3c2)cc1NS(=O)(=O)c1cnc(N)s1 [compound 161] |  |  | inhibition at 0.25 µM (read-out: % inhibition AKT): 79.5%; inhibition at 0.25 µM (read-out: % inhibition p70s6k): 41%
41 | ≤ 50 nM | 50 to 100 nM | COc1ncc(-c2ccc3ncc(Cl)c(=O)n3c2)cc1NS(=O)(=O)c1nc(C)c(C)s1 [compound 157] |  |  | inhibition at 0.25 µM (read-out: % inhibition AKT): 79.2%; inhibition at 0.25 µM (read-out: % inhibition p70s6k): 90.8%
42 | ≤ 50 nM |  | COc1ncc(-c2ccc3ncc(OCC4COC4)c(=O)n3c2)cc1NS(=O)(=O)c1ccc(F)cc1Cl [compound 214] |  |  | 
43 | ≤ 50 nM |  | COCCOc1cnc2ccc(-c3cnc(OC)c(NS(=O)(=O)c4ccc(OC)nc4C)c3)cn2c1=O [compound 187] |  |  | 
44 | ≤ 50 nM |  | CNc1nc(C)c(S(=O)(=O)Nc2cc(-c3ccc4ncc(OCCOC)c(=O)n4c3)cnc2OC)s1 [compound 189] |  |  | 
45 | ≤ 50 nM |  | COCCNc1cnc2ccc(-c3cnc(OC)c(NS(=O)(=O)c4sc(C)nc4C)c3)cn2c1=O [compound 99] |  |  | 
46 | ≤ 50 nM | 100 to 250 nM | COc1ncc(-c2ccc3ncc(N)c(=O)n3c2)cc1NS(=O)(=O)c1ccc(F)cc1C [compound 89] | 93% | 88.1% | 
47 | ≤ 50 nM |  | COc1ncc(-c2ccc3ncc(OCC4CCOC4)c(=O)n3c2)cc1NS(=O)(=O)c1sc(C)nc1C (stereo not drawn) [compound 200] |  |  | 
48 | 100 to 250 nM |  | COCCOc1cnc2ccc(-c3cnc(OC)c(NS(=O)(=O)c4cc(F)c(F)cc4Cl)c3)cn2c1=O [compound 266] |  |  | 
49 | 100 to 250 nM |  | COc1ncc(-c2ccc3ncc(Cl)c(=O)n3c2)cc1NS(=O)(=O)c1sc(NC(C)=O)nc1C [compound 167] |  |  | 
50 | ≤ 50 nM | ≤ 50 nM | COc1ncc(-c2ccc3ncc(OC)c(=O)n3c2)cc1NS(=O)(=O)c1ccccc1Cl [compound 105] | 95.4% | 90.3% | 
51 | > 250 nM |  | COc1ncc(-c2ccc3ncc(NS(C)(=O)=O)c(=O)n3c2)cc1NS(=O)(=O)c1ccc(F)cc1F [compound 98] |  |  | 
52 | ≤ 50 nM |  | COCCOc1cnc2ccc(-c3cnc(OC)c(NS(=O)(=O)c4cc(Cl)ccc4F)c3)cn2c1=O [compound 272] |  |  | 
53 | 50 to 100 nM | 100 to 250 nM | COc1ncc(-c2ccc3ncc(Cl)c(=O)n3c2)cc1NS(=O)(=O)c1ncc(C)s1 [compound 162] |  |  | inhibition at 0.25 µM (read-out: % inhibition AKT): 77.8%; inhibition at 0.25 µM (read-out: % inhibition p70s6k): 64.9%
54 | ≤ 50 nM | 50 to 100 nM | COc1ncc(-c2ccc3ncc(Cl)c(=O)n3c2)cc1NS(=O)(=O)c1cccnc1C [compound 164] |  |  | inhibition at 0.25 µM (read-out: % inhibition AKT): 79.4%; inhibition at 0.25 µM (read-out: % inhibition p70s6k): 89.6%
